The structures appear in SMILES notation.

This assay has as its target T1, IRAK3 (Homo sapiens, UniProt Q9Y616).
T1 construct: IRAK Endogenous HTRF Degradation Assay; endogenous in cells
T1 sequence (Q9Y616 1-596): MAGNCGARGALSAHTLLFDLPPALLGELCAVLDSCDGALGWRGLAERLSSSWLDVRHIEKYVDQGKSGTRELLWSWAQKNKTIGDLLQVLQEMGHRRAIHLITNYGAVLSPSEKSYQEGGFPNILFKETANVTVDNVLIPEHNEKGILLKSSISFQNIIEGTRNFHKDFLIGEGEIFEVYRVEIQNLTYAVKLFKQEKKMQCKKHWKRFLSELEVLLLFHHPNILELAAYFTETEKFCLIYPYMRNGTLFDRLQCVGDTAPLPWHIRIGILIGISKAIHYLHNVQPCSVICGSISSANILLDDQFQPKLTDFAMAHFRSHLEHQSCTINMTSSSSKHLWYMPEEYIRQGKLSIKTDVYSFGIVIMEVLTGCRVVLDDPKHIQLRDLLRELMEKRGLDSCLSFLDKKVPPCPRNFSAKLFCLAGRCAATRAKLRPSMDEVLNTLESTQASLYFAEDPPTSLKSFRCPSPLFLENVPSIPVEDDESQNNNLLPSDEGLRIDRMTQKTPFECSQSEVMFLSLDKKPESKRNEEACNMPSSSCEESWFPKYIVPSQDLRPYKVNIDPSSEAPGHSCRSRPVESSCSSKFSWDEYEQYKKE
Briefly: IRAK3 Biochemical Binding Assay (LanthaScreen Eu Kinase Binding). The following applies: TR-FRET tracer displacement, 1 hour at room temperature. How it is done:
The LanthaScreen® Eu Kinase Binding assay was performed as described by the vendor (ThermoFisher Scientific Waltham, MA). Briefly, 100× solutions of compound were prepared in DMSO via serial dilution of the 10 mM stock solution in a 384-well reagent plate using 3-fold intervals to achieve final concentrations. 1 μL of the compound dilution series were added to the corresponding wells of a 384-well reagent plate containing 32.3 μL of 1× buffer (50 mM HEPES pH 7.4, […], 1 mM EGTA, 0.01% Brij-35). 5 μL of the buffer diluted compounds were transferred to the corresponding wells of a 384-well assay plate. 5 μL of 3× tracer was transferred to each well of the assay plate for a final tracer concentration of 10 nM. Finally, 5 μL of the 3× Eu-Anti-GST and IRAK3 mix was transferred to each well for a final concentration of 2 nM and 10 nM respectively. Reactions were allowed to incubate for 1 hour at room temperature. TR-FRET signal of the interaction (λex340/λem 665/λem 615) was read at room temperature with a delay time of 100 μs and an integration time of 200 μs using an Envision plate reader. Background corrected emission signal ratios at each compound concentration were used to calculate percentage of inhibition (% Inhibition). Plots of % Inhibition versus inhibitor concentrations were fit according to a dose-response equation (Eq. 1) to generate IC50 and Hill slope values using Dotmatics software (Dotmatics, Bishops Stortford, Hertfordshire, England).
Using these assays, IC50, Dmax, EC50, and DC50 values of the following compounds were determined. Dmax is defined as the maximum percent degradation achieved and DC50 is the concentration at which 50% degradation is achieved.
For orientation: Time-resolved FRET reads energy transfer from a long-lived donor to a nearby acceptor.
As for `Cc1cccc(-c2cnc(Nc3ccc(N4CCN(C(=O)COc5cccc6c5C(=O)N(C5CCC(=O)NC5=O)C6=O)CC4)cc3)c3nccn23)c1` (stereo not drawn) [Compound 1, 2-(2,6-Dioxopiperidin-3-yl)-4-(2-oxo-2-(4-(4-((5-(m-tolyl)imidazo[1,2-a]pyrazin-8-yl)amino)phenyl)piperazin-1-yl)ethoxy)isoindoline-1,3-dione], the IC50 (commonly the concentration needed to halve the response being measured) came to 278 nM.

Take `Cc1cccc(-c2cnc(Nc3ccc(N4CCN(C(=O)CCCNC(=O)COc5cccc6c5C(=O)N(C5CCC(=O)NC5=O)C6=O)CC4)cc3)c3nccn23)c1` (stereo not drawn) [Compound 2, 2-((2-(2,6-Dioxopiperidin-3-yl)-1,3-dioxoisoindolin-4-yl)oxy)-N-(4-oxo-4-(4-(4-((5-(m-tolyl)imidazo[1,2-a]pyrazin-8-yl)amino)phenyl)piperazin-1-yl)butyl)acetamide]: the half-inhibitory concentration (IC50) was 30 nM.

Take `Cc1cccc(-c2cnc(Nc3ccc(N4CCN(C(=O)CCOCCNC(=O)COc5cccc6c5C(=O)N(C5CCC(=O)NC5=O)C6=O)CC4)cc3)c3nccn23)c1` (stereo not drawn) [Compound 3, 2-((2-(2,6-Dioxopiperidin-3-yl)-1,3-dioxoisoindolin-4-yl)oxy)-N-(2-(3-oxo-3-(4-(4-((5-(m-tolyl)imidazo[1,2-a]pyrazin-8-yl)amino)phenyl)piperazin-1-yl)propoxy)ethyl)acetamide]: the half-maximal inhibitory concentration (IC50) is 84 nM.

As for `Cc1cccc(-c2cnc(Nc3ccc(N4CCN(C(=O)COc5ccc6c(c5)C(=O)N(C5CCC(=O)NC5=O)C6=O)CC4)cc3)c3nccn23)c1` (stereo not drawn) [Compound 4, 2-(2,6-Dioxopiperidin-3-yl)-5-(2-oxo-2-(4-(4-((5-(m-tolyl)imidazo[1,2-a]pyrazin-8-yl)amino)phenyl)piperazin-1-yl)ethoxy)isoindoline-1,3-dione], the half-maximal inhibitory concentration (IC50) stood at 128 nM.

Turning to `Cc1cccc(-c2cnc(Nc3ccc(N4CCN(C(=O)CCCNC(=O)COc5ccc6c(c5)C(=O)N(C5CCC(=O)NC5=O)C6=O)CC4)cc3)c3nccn23)c1` (stereo not drawn) [Compound 5, 2-((2-(2,6-Dioxopiperidin-3-yl)-1,3-dioxoisoindolin-5-yl)oxy)-N-(4-oxo-4-(4-(4-((5-(m-tolyl)imidazo[1,2-a]pyrazin-8-yl)amino)phenyl)piperazin-1-yl)butyl)acetamide], the IC50 was determined as 71 nM.

Regarding `Cc1cccc(-c2cnc(Nc3ccc(N4CCN(C(=O)CCOCCNC(=O)COc5ccc6c(c5)C(=O)N(C5CCC(=O)NC5=O)C6=O)CC4)cc3)c3nccn23)c1` (stereo not drawn) [Compound 6, 2-((2-(2,6-Dioxopiperidin-3-yl)-1,3-dioxoisoindolin-5-yl)oxy)-N-(2-(3-oxo-3-(4-(4-((5-(m-tolyl)imidazo[1,2-a]pyrazin-8-yl)amino)phenyl)piperazin-1-yl)propoxy)ethyl)acetamide], the IC50 is 83 nM.

As for `Cc1cccc(-c2cnc(Nc3ccc(N4CCN(CCNC(=O)COc5ccc6c(c5)C(=O)N(C5CCC(=O)NC5=O)C6=O)CC4)cc3)c3nccn23)c1` (stereo not drawn) [Compound 7, 2-((2-(2,6-Dioxopiperidin-3-yl)-1,3-dioxoisoindolin-5-yl)oxy)-N-(2-(4-(4-((5-(m-tolyl)imidazo[1,2-a]pyrazin-8-yl)amino)phenyl)piperazin-1-yl)ethyl)acetamide], the IC50 is 33 nM.

For `Cc1cccc(-c2cnc(Nc3cnn(C4CCN(CCNC(=O)COc5ccc6c(c5)C(=O)N(C5CCC(=O)NC5=O)C6=O)CC4)c3)c3nccn23)c1` (stereo not drawn) [Compound 8, 2-((2-(2,6-Dioxopiperidin-3-yl)-1,3-dioxoisoindolin-5-yl)oxy)-N-(2-(4-(4-((5-(m-tolyl)imidazo[1,2-a]pyrazin-8-yl)amino)-1H-pyrazol-1-yl)piperidin-1-yl)ethyl)acetamide], the IC50 was less than 0.5 nM.

For the molecule `Cc1cccc(-c2cnc(Nc3cccc(C4CCN(CCNC(=O)COc5ccc6c(c5)C(=O)N(C5CCC(=O)NC5=O)C6=O)CC4)c3)c3nccn23)c1` (stereo not drawn) [Compound 9, 2-((2-(2,6-Dioxopiperidin-3-yl)-1,3-dioxoisoindolin-5-yl)oxy)-N-(2-(4-(3-((5-(m-tolyl)imidazo[1,2-a]pyrazin-8-yl)amino)phenyl)piperidin-1-yl)ethyl)acetamide], the IC50 was found to be 214 nM.

With `Cc1cccc(-c2cnc(Nc3ccc(C4CCN(CCNC(=O)COc5ccc6c(c5)C(=O)N(C5CCC(=O)NC5=O)C6=O)CC4)cc3)c3nccn23)c1` (stereo not drawn) [Compound 10, 2-((2-(2,6-Dioxopiperidin-3-yl)-1,3-dioxoisoindolin-5-yl)oxy)-N-(2-(4-(4-((5-(m-tolyl)imidazo[1,2-a]pyrazin-8-yl)amino)phenyl)piperidin-1-yl)ethyl)acetamide], the IC50 was 236 nM.

Molecule `Cc1cccc(-c2cnc(Nc3cccc(N4CCN(CCNC(=O)COc5ccc6c(c5)C(=O)N(C5CCC(=O)NC5=O)C6=O)CC4)c3)c3nccn23)c1` (stereo not drawn) [Compound 11, 2-((2-(2,6-Dioxopiperidin-3-yl)-1,3-dioxoisoindolin-5-yl)oxy)-N-(2-(4-(3-((5-(m-tolyl)imidazo[1,2-a]pyrazin-8-yl)amino)phenyl)piperazin-1-yl)ethyl)acetamide] displayed an IC50 of 5340 nM.

Take `Cc1cccc(-c2cnc(Nc3cnn(C4CCN(C5CCC6(CC5)CCN(C(=O)c5ccc7c(c5)CN(C5CCC(=O)NC5=O)C7=O)CC6)CC4)c3)c3nccn23)c1` (stereo not drawn) [Compound 12, 3-(1-Oxo-5-(9-(4-(4-((5-(m-tolyl)imidazo[1,2-a]pyrazin-8-yl)amino)-1H-pyrazol-1-yl)piperidin-1-yl)-3-azaspiro[5.5]undecane-3-carbonyl)isoindolin-2-yl)piperidine-2,6-dione]: the IC50 turned out to be 2 nM.

Values taken from patent US20260028343A1, “Substituted Imidazopyrazine Compounds as Ligand Directed Degraders of IRAK3” (Celgene Corporation, priority 2022, published 2026).
